Read-outs that look alike come from different tables or passages of the source.
Columns and labels:
rPAPD5 = target: T1, rPAPD5 (Homo sapiens, UniProt Q8NDF8); experiment: differential scanning fluorimetry (DSF) binding and stabilization of rPAPD5; conditions: for ΔTm at 100 µM: 100 μM test compound, read-out: ΔTm at 100 μM; for ΔTm at 1 µM: read-out: ΔTm at 1 μM
T1 construct: made in house
Outline: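 Differential scanning fluorimetry was used to measure how test compounds bind and thermally stabilize rPAPD5. The reaction contained SYPRO orange dye diluted 1:5000 in […] of buffer with […], 25 mM Tris-HCl, 5 mM MgCl2 and 50 mM KCl. ΔTm was calculated relative to a DMSO control.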

[1] = system: hepatitis B surface antigen (HBSAg) from HepG2.2.15 cells, a hepatitis B virus-expressing cell line; experiment: HBsAg ELISA in supernatant of HepG2.2.15 cells; type: cell-based; conditions: HepG2.2.15, 96 h
Experimental: HepG2.2.15 cells, a hepatitis B virus-expressing cell line (Sells, M. A. et al., PNAS, 1987), were plated at 50,000 cells/well in DMEM/F12 media (Gibco) with 10% fetal bovine serum (Omega Scientific) in a 24-well or 96-well plate (Corning), in 2-3 replicates for each test compound/concentration plus controls, and incubated in a humidified 5% CO2 chamber at 37° C. The next day, media was aspirated, cells were washed once with phosphate buffered saline, pH7.4 (Gibco), and 1 mL DMEM/12 media was replaced. Test compounds were added in 3-fold dilutions from up to 100 μM down to 333 pM, with vehicle (dimethylsulfoxide (Sigma)) as a control. After four days of culture in a humidified 5% CO2 chamber at 37° C., plates were spun down in a centrifuge at 300 g for 10 minutes at room temperature. Supernatant from each well was collected and either frozen at −20° C. or used directly for quantitation of hepatitis B surface antigen (HBSAg) in an enzyme-linked immunosorbent assay (ELISA). The supernatant was tested using the HBSAg ELISA kit (Abnova Cat. No KA0286) per the manufacturer's instructions. Results of replicates were averaged and nonlinear curve fitting was used to determine the half maximal inhibitory concentration (IC50) for each test compound.

[2] = system: TERC 3′ end processing in DC patient iPSCs; experiment: TERC 3′ end processing by RACE in DC patient / PARN-mutant iPSCs; type: cell-based, human; conditions: Homo sapiens, iPSC, read-out: iPSC-based RACE activity
Experimental: Compound 266A had activity ˜2-logs higher in the in vitro RNA oligoadenylation assay compared to the parental compound cmpd. 1, approximating the activity of RG7834 (FIG. 7). […] 1. Compounds 295A and 296A had activity 2-3 logs higher in DC patient iPSCs, showing TERC maturation at 1 nM, similar to RG7834 (FIG. 6). […] Referring to Table 1D, “+” refers to activity at 1 μM, “++” refers to activity above 1 nM and below 1 μM, and “+++” refers to activity at <1 nM, “ND” refers to not determined.

[3] = 10 μM test compound (Table 2a), read-out: ΔTm at 10 μM
[4] = patient iPSCs, concentration class at which activity is seen
[5] = 10 μM test compound, shift vs DMSO control, read-out: ΔTm (Table 2, starred: the compound was tested at 10 μM)

T1 sequence (Q8NDF8 68-698 isoform Q8NDF8-5 limits assumed): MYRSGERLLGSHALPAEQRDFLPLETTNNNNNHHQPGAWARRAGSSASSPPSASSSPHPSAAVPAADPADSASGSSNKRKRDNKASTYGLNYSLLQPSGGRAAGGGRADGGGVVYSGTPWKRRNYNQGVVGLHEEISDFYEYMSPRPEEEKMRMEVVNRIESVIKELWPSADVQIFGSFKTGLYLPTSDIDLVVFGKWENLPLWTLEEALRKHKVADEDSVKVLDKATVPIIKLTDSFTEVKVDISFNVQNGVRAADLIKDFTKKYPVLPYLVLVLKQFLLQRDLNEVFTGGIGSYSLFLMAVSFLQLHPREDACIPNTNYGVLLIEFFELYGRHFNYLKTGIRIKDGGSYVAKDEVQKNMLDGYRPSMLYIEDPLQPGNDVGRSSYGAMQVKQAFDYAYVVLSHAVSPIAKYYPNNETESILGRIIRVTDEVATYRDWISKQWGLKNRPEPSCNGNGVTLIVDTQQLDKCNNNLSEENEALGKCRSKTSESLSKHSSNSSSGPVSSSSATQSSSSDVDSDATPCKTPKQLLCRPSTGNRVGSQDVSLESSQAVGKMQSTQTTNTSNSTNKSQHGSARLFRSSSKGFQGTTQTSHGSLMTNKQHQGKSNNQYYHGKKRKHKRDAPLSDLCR

Structure (SMILES)	ΔTm at 1 µM (rPAPD5; 1 μM test compound (Table 2a)) [°C]	ΔTm at 10 µM (rPAPD5; [3]) [°C]	ΔTm at 100 µM (rPAPD5; shift vs DMSO control) [°C]	IC50 [1] [µM]	minimal effective concentration [2, 4] [µM]	other results
O=C(O)c1ccccc1Nc1c(-c2ncco2)cnc2ccc(Cl)cc12 [Compound 129A, 2-[(6-chloro-3-oxazol-2-yl-4-quinolyl)amino]benzoic acid]			> 5	4.6		
O=C(O)c1ccccc1Nc1c(-c2ncco2)cnc2ccc(Br)cc12 [Compound 130A]			> 5	8.89		
O=C(O)c1ccccc1Nc1c(NC2CCC(F)(F)CC2)cnc2ccc(Cl)cc12 [Compound 185A, 2-[[6-chloro-3-[(4,4-difluorocyclohexyl)amino]-4-quinolyl]amino]benzoic acid]			> 5	2.19		
O=C(O)c1ccccc1Nc1c(C2CCOCC2)cnc2ccc(Cl)cc12 [Compound 204A, 2-[(6-chloro-3-tetrahydropyran-4-yl-4-quinolyl)amino]benzoic acid]			> 5	3.39		
O=C(O)c1ccccc1Nc1c(C2=CCOCC2)cnc2ccc(Cl)cc12 [Compound 204A-INT, 2-[[6-chloro-3-(3,6-dihydro-2H-pyran-4-yl)-4-quinolyl]amino]benzoic acid]			> 5	2.69		
O=C(O)c1ccccc1Nc1c(C2=CCC(F)(F)CC2)cnc2ccc(Cl)cc12 [Compound 205A-INT, 2-[[6-chloro-3-(4,4-difluorocyclohexen-1-yl)-4-quinolyl]amino]benzoic acid]			> 5	1.3		
O=C(O)c1ccccc1Nc1c(S(=O)(=O)Nc2nn[nH]n2)cnc2ccc(Cl)cc12 [Compound 226A, 2-[[6-chloro-3-(2H-tetrazol-5-ylsulfamoyl)-4-quinolyl]amino]benzoic acid]			> 5	9.46		
O=C(O)c1ccccc1Nc1c(S(=O)(=O)N2CCOCC2)cnc2ccc(F)cc12 [Compound 233A, 2-[(6-fluoro-3-morpholinosulfonyl-4-quinolyl)amino]benzoic acid]			> 5	29.1		
O=C(O)c1cc(F)ccc1Nc1c(S(=O)(=O)N2CCOCC2)cnc2ccc(Cl)cc12 [Compound 267A, 2-[(6-chloro-3-morpholinosulfonyl-4-quinolyl)amino]-5-fluoro-benzoic acid]			> 5	4.84		
O=C(O)c1cc(Cl)ccc1Nc1c(C2=CCNCC2)cnc2ccc(Cl)cc12 [Compound 368A, 5-chloro-2-[[6-chloro-3-(1,2,3,6-tetrahydropyridin-4-yl)-4-quinolyl]amino]benzoic acid]	> 5	> 5	> 5		1	
O=C(O)c1cc(Cl)ccc1Nc1c(C2CCC(F)CC2)cnc2ccc(Cl)cc12 (centres unmarked) [Compound 400A, 5-chloro-2-[[6-chloro-3-(4-fluorocyclohexyl)-4-quinolyl]amino]benzoic acid]						ΔTm at 10 µM (rPAPD5; read-out: ΔTm (Table 2, starred: the compound was tested at 10 μM)): > 5 °C; ΔTm at 1 µM (rPAPD5): > 5 °C; ΔTm at 10 µM (rPAPD5; read-out: ΔTm at 10 μM): > 5 °C; minimal effective concentration [2]: < 0.001 µM

Continued, in another order:

ΔTm at 1 µM (rPAPD5; 1 μM test compound (Table 2a)) [°C]	ΔTm at 10 µM (rPAPD5; [3]) [°C]	Structure (SMILES)	ΔTm at 100 µM (rPAPD5; shift vs DMSO control) [°C]	IC50 [1] [µM]	minimal effective concentration [2, 4] [µM]	other results
> 5	> 5	O=C(O)c1cc(Cl)ccc1Nc1c(C2CCNC2)cnc2ccc(Cl)cc12 (centres unmarked) [Compound 357A, 5-chloro-2-((6-chloro-3-(pyrrolidin-3-yl)quinolin-4-yl)amino)benzoic acid]	> 5		1	
> 5	> 5	O=C(O)c1cc(Cl)ccc1Nc1c(N2CCNCC2)cnc2ccc(Cl)cc12 [Compound 362A, 5-chloro-2-[(6-chloro-3-piperazin-1-yl-4-quinolyl)amino]benzoic acid]	> 5		1	
> 5	> 5	O=C(O)c1cc(Cl)ccc1Nc1c(C(=O)N2CCOCC2)cnc2ccc(Cl)cc12 [Compound 372A, 5-chloro-2-[[6-chloro-3-(morpholine-4-carbonyl)-4-quinolyl]amino]benzoic acid]	> 5		1	
> 5	> 5	O=C(O)c1cc(Cl)ccc1Nc1c(N2CCC(OC(F)(F)F)CC2)cnc2ccc(Cl)cc12 [Compound 394A, 5-chloro-2-[[6-chloro-3-[4-(trifluoromethoxy)-1-piperidyl]-4-quinolyl]amino]benzoic acid]			< 0.001	ΔTm at 10 µM (rPAPD5; [5]): > 5 °C
> 5	> 5	O=C(O)c1cc(Cl)ccc1Nc1c(C2=CCOC2)cnc2ccc(Cl)cc12 [Compound 401A, 5-chloro-2-[[6-chloro-3-(2,5-dihydrofuran-3-yl)-4-quinolyl]amino]benzoic acid]	> 5		1	
> 5	> 5	O=C(O)c1cc(Cl)ccc1Nc1c(C2=CCNC2)cnc2ccc(Cl)cc12 [Compound 402A, 5-chloro-2-((6-chloro-3-(2,5-dihydro-1H-pyrrol-3-yl)quinolin-4-yl)amino)benzoic acid]	> 5		1	
> 5	> 5	O=C1CC=C(c2cnc3ccc(Cl)cc3c2Nc2ccc(Cl)cc2C(=O)O)CC1 [Compound 403A, 5-chloro-2-[[6-chloro-3-(4-oxocyclohexen-1-yl)-4-quinolyl]amino]benzoic acid]	> 5		1	
> 5	> 5	O=C(O)c1cc(Cl)ccc1Nc1c(S(=O)(=O)N2CCSCC2)cnc2cc(F)c(Cl)cc12 [Compound 415A, 5-chloro-2-[(6-chloro-7-fluoro-3-thiomorpholinosulfonyl-4-quinolyl)amino]benzoic acid]	> 5		1	
> 5	> 5	O=C(O)c1cc(Cl)c(F)cc1Nc1c(S(=O)(=O)N2CCSCC2)cnc2ccc(Cl)cc12 [Compound 425A, 5-chloro-2-[(6-chloro-3-thiomorpholinosulfonyl-4-quinolyl)amino]-4-fluoro-benzoic acid]	> 5		0.001 to 1	
1 to 5	> 5	Cc1cc(Nc2c(S(=O)(=O)N3CCSCC3)cnc3ccc(Cl)cc23)c(C(=O)O)cc1Cl [Compound 426A, 5-chloro-2-[(6-chloro-3-thiomorpholinosulfonyl-4-quinolyl)amino]-4-methyl-benzoic acid]			1	ΔTm at 10 µM (rPAPD5; [5]): > 5 °C
> 5	> 5	O=C(O)c1cc(Cl)cc(F)c1Nc1c(S(=O)(=O)N2CCSCC2)cnc2ccc(Cl)cc12 [Compound 427A, 5-chloro-2-[(6-chloro-3-thiomorpholinosulfonyl-4-quinolyl)amino]-3-fluoro-benzoic acid]	> 5		0.001 to 1	
> 5	> 5	O=C(O)c1cc(Cl)ccc1Nc1c(N2CCC(Cl)(Cl)CC2)cnc2ccc(Cl)cc12 [Compound 430A, 5-chloro-2-[[6-chloro-3-(4,4-dichloro-1-piperidyl)-4-quinolyl]amino]benzoic acid]			< 0.001	ΔTm at 10 µM (rPAPD5; [5]): > 5 °C
